From patent US20070027138A1 (priority 2000, published 2007)
pIC50: −log10 of the molar value. Structures can show the parent of a compound that is named as a salt.

Target: acetylcholinesterase (AChE), human recombinant (Homo sapiens, UniProt P22303)
Test: biochemical
Type: biochemical
Conditions: not given

acetylcholinesterase (AChE), human recombinant, sequence (P22303 32-614): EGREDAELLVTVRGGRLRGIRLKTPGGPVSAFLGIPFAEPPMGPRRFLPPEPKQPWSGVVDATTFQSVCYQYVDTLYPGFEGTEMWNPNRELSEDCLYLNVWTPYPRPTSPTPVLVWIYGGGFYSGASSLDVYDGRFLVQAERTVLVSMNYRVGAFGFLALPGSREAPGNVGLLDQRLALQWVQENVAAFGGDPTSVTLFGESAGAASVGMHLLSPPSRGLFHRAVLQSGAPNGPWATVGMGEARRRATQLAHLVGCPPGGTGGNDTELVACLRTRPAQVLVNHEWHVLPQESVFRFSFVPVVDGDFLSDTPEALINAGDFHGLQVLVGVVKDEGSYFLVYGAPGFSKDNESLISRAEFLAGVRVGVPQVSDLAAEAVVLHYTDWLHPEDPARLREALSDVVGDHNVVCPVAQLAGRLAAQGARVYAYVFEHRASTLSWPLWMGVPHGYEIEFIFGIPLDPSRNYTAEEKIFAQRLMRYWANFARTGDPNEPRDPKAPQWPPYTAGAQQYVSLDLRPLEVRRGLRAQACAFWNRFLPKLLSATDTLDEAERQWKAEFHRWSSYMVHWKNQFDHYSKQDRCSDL

Row | SMILES | pIC50
1 | COc1ccc2c3c1OC1CC(O)C=CC31CCN(CCCCN1C(=O)c3ccccc3S1(=O)=O)C2 (centres unmarked) [SPH-1369] | 7.66

Same assay, conditions: human recombinant enzyme (hr); pre-incubation of the enzyme with inhibitor (mE); read-out: IC50 (AChE, mE, hr)

Row | SMILES | pIC50
2 | COc1ccc2c3c1OC1CC(O)C=CC31CCCC2N (centres unmarked) [SPH-1309] | 3.70
3 | COc1ccc2c3c1OC1CC(O)C=CC31CCN(CCN)C2 (centres unmarked) [SPH-1311] | 5.89
4 | COc1ccc2c3c1OC1C[C@@H](O)C=CC31CCN(C(=O)Nc1ccccc1C(F)(F)F)C2 (some centres unmarked) [SPH-1266] | 4.52
5 | COc1cc(C)c2c3c1OC1CC(O)C=CC31CCN(C)C2 (centres unmarked) [SPH-1200] | 3.70
6 | C=CCCC(=O)N1CCC23C=CC(O)CC2Oc2c(OC)ccc(c23)C1 (centres unmarked) [SPH-1326] | 5.08
7 | COc1ccc2c3c1OC1C[C@@H](O)C=CC31CCN(c1nc(OCCN)nc(OCCN)n1)C2 (stereo partly drawn) [SPH-1233, (6R)-11-(4,6-Bis-(2aminoethoxy)-1,3,5-triazine-2-yl)-3-methoxy-5,6,9,10,11,12-hexahydro-4aH-[1]benzofuro[3a,3,2-ef][2]benzazepin-6-ol] | 3.70
8 | COc1cc(N(C)C)c2c3c1O[C@H]1CC(O)C=CC31CCN(C)C2 (some centres unmarked) [SPH-1163] | 3.70
9 | COc1cc(C)c2c3c1OC1C[C@@H](O)C=CC31CCN(CCN1CCOCC1)C2 (some centres unmarked) [SPH-1202] | 3.70
10 | COC(=O)C1=CON2CCC34C=CC(O)CC3Oc3c(OC)ccc(c34)C12 (centres unmarked) [SPH-1332] | 3.70
11 | COc1cc(C)c2c3c1OC1CC(O)C=CC31CCN(C)C2 (centres unmarked) [SPH-1204] | 3.70
12 | COc1cc(C)c2c3c1OC1CC(O)C=CC31CCN(CCCN1CCCCC1)C2 (centres unmarked) [SPH-1298] | 3.70
13 | COC(=O)C(=CN1CCC23C=CC(O)CC2Oc2c(OC)ccc(c23)C1)C(=O)OC (centres unmarked) [SPH-1278] | 4.00
14 | COc1cc(Br)c2c3c1OC1C[C@@H](O)C=CC31CCN(C(=O)NC(C)C)C2 (stereo partly drawn) [SPH-1208, (6R)-1-Bromo-6-hydroxy-N^11-isopropyl-3-methoxy-5,6,9,10-tetrahydro-4aH-[1]benzofuro[3a,3,2-ef][2]benzazepine-11(12H)-carboxylic acid amide] | 3.70
15 | COc1ccc2c3c1OC1CC(O)C=CC31CC[N+](C)(CC1CC1)C2 (single isomer, unassigned; (-)) [SPH-1146, (−) Cyclopropylmethylgalanthaminium bromide] | 5.92
16 | CCOC(=O)CCN1CCC23C=C[C@H](O)CC2Oc2c(OC)cc(Br)c(c23)C1 (stereo partly drawn) [SPH-1162, 3-((6R)-1-Bromo-6-hydroxy-3-methoxy-5,6,9,10-tetrahydro-4aH-[1]benzofuro[3a,3,2-ef][2]benzazepin-11(12H)-yl)propanoic acid ethyl ester] | 3.70
17 | C=CCN1CCC23C=CC(O)CC2Oc2c(OC)cc(C)c(c23)C1 (centres unmarked) [SPH-1199] | 3.70
18 | COc1ccc2c3c1OC1C[C@@H](O)C=CC31CCN(c1nc(Oc3ccccc3)nc(Oc3ccccc3)n1)C2 (stereo partly drawn) [SPH-1228, (6R)-11-(4,6-Diphenoxy-1,3,5-triazine-2-yl)-3-methoxy-5,6,9,10,11,12-hexahydro-4aH-[1]benzofuro[3a,3,2-ef][2]benzazepin-6-ol] | 3.70
19 | COc1ccc2c3c1OC1CC(O)C=CC31CN(C)CC2 (centres unmarked) [SPH-1263, (4aα,8aα)-4a,5,9,10,11-Hexahydro-3-methoxy-10-methyl-6H-benzofuro[3a,3,2-ef]-[3]benzazepin-6-ol] | 3.70
20 | COc1ccc2c3c1OC1CC(O)C=CC31CCN(CCC(=O)O)C2 (centres unmarked) [SPH-1276] | 4.38

Same assay, conditions: last section of the table, own sub-head (r307); read-out: IC50 AChE

Row | SMILES | pIC50
21 | C=C(C)C[N+]1(C)CC[C@@]23C=C[C@H](O)C[C@@H]2Oc2c(OC)ccc(c23)C1 (some centres unmarked) [SPH-1193] | 5.82

Same assay, conditions: read-out: IC50 (AChE, mE, hr); human recombinant enzyme (hr); pre-incubation of the enzyme with inhibitor (mE)

Row | SMILES | pIC50
22 | COc1cc(Br)c2c3c1OC1C[C@@H](O)C=CC31CCN(CCC#N)C2 (stereo in doubt) [SPH-1210, 3-((6R)-1-Bromo-6-hydroxy-3-methoxy-5,6,9,10-tetrahydro-4aH-[I]benzofuro[3a,3,2-ef][2]benzazepine-11(12H)-yl)propanenitrile] | 3.70

Tested on: not given
Test: not given
Conditions: not given

Row | melting point [°C] | SMILES
23 | 251 to 255 | COc1ccc2c3c1O[C@H]1C[C@@H](O)C=C[C@@]31CCN(C)C2=O
24 | 132 to 134 | COc1ccc2c3c1O[C@H]1C[C@@H](O)C=C[C@@]31CCN1OC(OC(C)=O)C[C@@H]21 (some centres unmarked)
25 | 137 to 139 | COc1ccc2c3c1O[C@H]1C[C@@H](O)C=C[C@@]31CCN1OC=C(C#N)[C@H]21
26 | 129 to 134 | COc1ccc2c3c1O[C@H]1C[C@@H](O)C=C[C@@]31CCN(CCCCCN1C(=O)c3cccc4cccc(c34)C1=O)C2 (as salt: fumarate)
